Assay results as given in paper PMC9108603, “Microbial Metabolite Inspired β‐Peptide Polymers Displaying Potent and Selective Antifungal Activity” (Advanced Science, 2022).
Converted amounts (≈) assume the structure as drawn.

Assays:
[1] = test system: endothelial cells (HUVEC); assay: Cytotoxicity, MTT assay; assay type: cell-based, human; settings: Homo sapiens, HUVEC, 24 h, 37 °C, 800 to 1.6 μg/mL, 50% cell viability
Description: Cytotoxicity assay. Cytotoxicity tests were performed on NIH 3T3 fibroblast cells, endothelial cells (HUVEC), macrophage (RAW264.7), liver cells (LO2), kidney cells (COS7) and enterocyte (NCM-460) using MTT assay. Cells were cultured in DMEM supplemented with 10% FBS, 5% penicillin, 2 mM L-glutamine and incubated at 37 °C in 5% CO 2. Cells were harvested and seeded onto 96-well plates at a density of 1.0 × 10^4 cells per well and incubated for 24 h. On each plate, wells containing growth medium only and cells in growth medium without any antifungal agent were used as the negative and positive control, […]
concentrations ranging from 800 to 1.6 μg/mL. Medium in each cell-containing well was replaced with 100 μL of the corresponding polymer solution, and the plates were incubated at 37 °C for 24 h. Then, the solution in each well was switched to 100 µL MTT solution (1 mg/mL) and the plate was incubated in the dark at 37 °C for 4 h. […] Then 85 µL of the supernatant from each well was transferred to the corresponding well in a new plate, followed by absorbance measurement at 570 nm on a plate reader. […] The percentage of cell viability in each test well, relative to the positive control (which defines 100%) w as calculated from [% fibroblast growth = (A polymer – Ablank)/(Acontrol – A blank) × 100]. […]

[2] = test system: Gram‐positive and Gram‐negative bacteria; assay: Antibacterial MIC test, summary over six bacteria; assay type: cell-based; settings: S. aureus, S. epidermidis, B. subtilis, E. coli, A. baumannii, K. pneumoniae
Excerpt: aforementioned antifungal assay. Gram-positive bacteria ( S. aureus ATCC 6538, S.

[3] = test system: C. albicans (K1 strain); assay: DNA fragmentation assay (TUNEL); assay type: cell-based, Candida albicans; settings: 50 μg/mL PDAP20, 8 h, 3.0 × 10^6 CFU/mL; late stage of apoptosis
Description: NAC concentration without affecting the normal cell growth. Wells containing cells in RPMI and 40 mM H 2O2 was used as positive controls. Cell suspension of C. albicans (K1 strain) at 6.0 × 10^6 CFU/mL was treated with 20 μM 2,7-dichlorodi-hydrofluorescein diacetate (DCFHDA) for 20 min. Then 50 µL of the cell suspension was added to each well, except the blank control (RMPI containing DCFHDA without cells). The fluorescence intensity of the induced ROS production was measured every 30 min using a plate reader at λ ex = 485 nm and λem = 530 nm. […]
Detection of mitochondrial membrane potential. Changes in mitochondrial membrane potential in C. albicans after incubation with PDAP 20 were analyzed using JC-1 as previously described. Mitochondrial membrane potential was detected with the fluorescent dye JC-1, which exists as aggregates (red) in normal cells with polarized mitochondria, whereas exists as monomers (green) in apoptotic cells with depolarized mitochondria. […]
DNA fragmentation assay. Apoptosis induced DNA fragments in C. albicans cells were analyzed using the TdT-mediated dUTP Nick-End Labeling (TUNEL) method. […]
fresh non-treated cell suspension was used as a control. The bright field and FITC fluorescence were collected under 100× oil immersion lenses, with representative areas in the images electronically amplified sixfold. […]

| Molecule | IC50 [1] [µg/mL] | MIC against the six bacteria (summary) [2] | DNA fragmentation, TUNEL [3] |
| --- | --- | --- | --- |
| C[C@@H]1[C@H](O)[C@@H](C)/C=C/C=C/C=C/C=C/C=C/C=C/C=C/[C@H](O[C@@H]2O[C@H](C)[C@@H](O)[C@H](N)[C@@H]2O)C[C@@H]2O[C@](O)(C[C@@H](O)C[C@@H](O)[C@H](O)CC[C@@H](O)C[C@@H](O)CC(=O)O[C@H]1C)C[C@H](O)[C@H]2C(=O)O [AmpB, amphotericin B] | 8.8 (≈ 9.52 µM) | – | – |
| poly(DL‐diaminopropionic acid) [PDAP20] | – | greater than 50 µg mL^−1 | strong green cytosol fluorescence |
